This assay deals with T1, α5β2γ2 subtype GABAAR (Homo sapiens, UniProt P18507+P31644).
T1 construct: expressed in transfected cells
T1 sequence (P31644 32-462): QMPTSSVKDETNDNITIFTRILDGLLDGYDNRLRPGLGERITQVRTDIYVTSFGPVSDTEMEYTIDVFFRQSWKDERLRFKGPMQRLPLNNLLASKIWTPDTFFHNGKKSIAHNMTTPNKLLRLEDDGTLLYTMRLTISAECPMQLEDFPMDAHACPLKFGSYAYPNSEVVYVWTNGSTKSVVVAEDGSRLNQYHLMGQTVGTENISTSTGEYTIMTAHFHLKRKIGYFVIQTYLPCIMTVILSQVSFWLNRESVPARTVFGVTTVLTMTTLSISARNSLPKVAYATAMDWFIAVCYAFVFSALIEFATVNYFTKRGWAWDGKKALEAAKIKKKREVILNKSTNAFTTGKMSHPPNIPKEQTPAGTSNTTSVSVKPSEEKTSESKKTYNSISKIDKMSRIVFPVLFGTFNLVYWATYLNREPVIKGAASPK
T1 sequence (P47870 25-512 partner limits assumed): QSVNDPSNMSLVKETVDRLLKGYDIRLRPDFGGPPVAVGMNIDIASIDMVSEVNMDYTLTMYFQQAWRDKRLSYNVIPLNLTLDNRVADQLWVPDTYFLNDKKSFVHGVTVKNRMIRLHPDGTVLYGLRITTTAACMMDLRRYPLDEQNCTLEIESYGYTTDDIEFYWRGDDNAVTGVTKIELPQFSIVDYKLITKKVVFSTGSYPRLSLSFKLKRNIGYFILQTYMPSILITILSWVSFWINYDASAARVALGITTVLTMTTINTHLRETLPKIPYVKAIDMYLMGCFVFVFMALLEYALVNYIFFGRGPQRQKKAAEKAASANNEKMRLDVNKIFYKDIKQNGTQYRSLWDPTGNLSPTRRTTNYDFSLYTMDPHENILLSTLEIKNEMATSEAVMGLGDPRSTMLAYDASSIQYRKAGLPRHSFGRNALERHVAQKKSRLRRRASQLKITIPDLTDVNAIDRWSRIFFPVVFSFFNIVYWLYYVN
T1 sequence (P18507 40-467 limits assumed): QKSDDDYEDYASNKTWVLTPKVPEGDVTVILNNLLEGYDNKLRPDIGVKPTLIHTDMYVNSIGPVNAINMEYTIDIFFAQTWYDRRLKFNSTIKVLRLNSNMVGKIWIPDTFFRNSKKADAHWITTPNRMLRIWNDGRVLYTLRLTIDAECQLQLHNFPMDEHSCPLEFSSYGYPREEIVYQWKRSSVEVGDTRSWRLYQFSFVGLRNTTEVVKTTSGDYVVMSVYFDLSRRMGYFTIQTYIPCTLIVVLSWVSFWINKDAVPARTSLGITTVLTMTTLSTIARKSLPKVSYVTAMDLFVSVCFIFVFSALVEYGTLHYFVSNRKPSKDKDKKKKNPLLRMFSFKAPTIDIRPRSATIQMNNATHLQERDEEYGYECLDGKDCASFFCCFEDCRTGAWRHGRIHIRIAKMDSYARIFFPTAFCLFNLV
Briefly: Positive allosteric modulator activity: potentiation of EC20 GABA current in oocytes. The assay is classed as cell-based. To be noted: read-out: GABA α5 Functional Data (potentiation), @ 100 nM, reported as ranges. The protocol: (B) Positive Allosteric Modulator Activity of Test Compounds on α5β2γ2 Subtype GABAAR
On day 1, 1 ng/32 nL of GABAA α5β2γ2 cDNA was injected into one oocyte. Test starts on day 2. The cDNA injected to the oocytes was a mix of alpha, beta and gamma, their ratio is 1:1:10 (by weight) and the total weight of the mixed 3 subunits to be injected in one oocyte was 1 ng in 32 nl volume. The injected oocytes can also be tested on day 3. In such case, the cDNA amount injected to the oocytes should be reduced by 20%.
Compounds of the present invention were tested using the following procedures.
• 1). 8 oocytes were placed in 8 chambers of OpusXpress and superfused with Modified Barth's Saline (MBS) at 3 mL/min. Glass electrodes back-filled with 3M KCl (0.5-3 megaohms) were used.
Control test (Diazepam or methyl 3,5-diphenylpyridazine-4-carboxylate) • 1). New oocytes was used to run new test. • 2). […] Oocytes were washed with MBS for 5-10 min. • 4). […] Itest was divided by IGABA to obtain potentiation (%). Test Compounds at Multiple Doses • 1). Repeat the above steps 1), 2) and 3) in the control test. • 2). […] Divide Itest by IGABA to obtain potentiation (%). • 3). Discard all tested oocytes, new oocytes were used and the above steps 1) and 2) were repeated to test second concentration of the same compound. Each oocyte was used for only one concentration test for a single test compound. The steps were repeated for other test compounds.

Some results are limits rather than exact numbers.

`CCOC(=O)c1ncn2c1Cc1c(C)nnn1-c1cc(OC)ccc1-2` [Compound 1]: the activation at 0.1 µM was 20 to 50%.
On to `CCOC(=O)c1ncn2c1Cc1c(C)nnn1-c1cc(F)ccc1-2` [Compound 2], for which the activation at 0.1 µM lay in the range of 20 to 50%.
As for `CCOC(=O)c1ncn2c1Cc1c(COc3ccccc3)nnn1-c1cc(OC)ccc1-2` [Compound 9], the figure is 20 to 50%.
Consider `CCOC(=O)c1ncn2c1Cc1c(COc3ccc(F)cc3)nnn1-c1cc(OC)ccc1-2` [Compound 10], for which the activation at 0.1 µM lay in the range of 5 to 20%.
In the case of `CCOC(=O)c1ncn2c1Cc1c(COc3cccc(OC)c3)nnn1-c1cc(OC)ccc1-2` [Compound 11], the activation at 0.1 µM was 20 to 50%.
As for `CCOC(=O)c1ncn2c1Cc1c(Cc3ccc(Cl)cc3)nnn1-c1cc(F)ccc1-2` [Compound 45], the figure is 20 to 50%; as for `CCOC(=O)c1ncn2c1Cc1c(CN3CCCC3)nnn1-c1cc(OC)ccc1-2` [Compound 48], 20 to 50%; as for `CCOC(=O)c1ncn2c1Cc1c(CN(CC)CC)nnn1-c1cc(OC)ccc1-2` [Compound 50], 5 to 20%.
`CCOC(=O)c1ncn2c1Cc1c(CN(C)Cc3ccccc3)nnn1-c1cc(OC)ccc1-2` [Compound 51]: the activation at 0.1 µM was in the range of 5 to 20%.
As for `CCOC(=O)c1ncn2c1Cn1c(COc3ccccc3)nnc1-c1cc(OC)ccc1-2` [Compound 55], the figure is 20 to 50%; as for `CCOC(=O)c1ncn2c1Cn1c(Oc3ccccc3)nnc1-c1cc(OC)ccc1-2` [Compound 104], 5 to 20%; as for `Cc1noc(-c2ncn3c2Cc2c(Cc4ccccc4)nnn2-c2cc(F)ccc2-3)n1` [Compound 109], 20 to 50%.
The figure for `Cc1noc(-c2ncn3c2Cc2c(C)nnn2-c2cc(F)ccc2-3)n1` [Compound 110] is 20 to 50%; for `CCOC(=O)c1ncn2c1Cc1c(Cc3cccnc3)nnn1-c1cc(C)ccc1-2` [Compound 111] it is 20 to 50%; for `Cc1nnn2c1Cc1c(C(=O)OC(C)C)ncn1-c1ccc(F)cc1-2` [Compound 112] it is 5 to 20%.
Regarding `Cc1nnn2c1Cc1c(C(=O)OCC(C)(C)C)ncn1-c1ccc(F)cc1-2` [Compound 113], the activation at 0.1 µM is > 50%.
As for `Cc1nnn2c1Cc1c(C(=O)OCC(F)(F)F)ncn1-c1ccc(F)cc1-2` [Compound 114], the figure is > 50%.
With `COc1ccc2c(c1)-c1nnc(COc3ccccc3)n1Cc1c(C(=O)OC(C)C)ncn1-2` [Compound 120], the activation at 0.1 µM is 20 to 50%.
In the case of `Cc1ncn2c1Cc1c(C)nnn1-c1ccccc1-2` [Compound 121], the activation at 0.1 µM was in the range of 5 to 20%.
The figure for `COc1ccc2c(c1)-c1nnc(COc3ccccc3)n1Cc1c(C#N)ncn1-2` [Compound 122] is 5 to 20%.
In the case of `Cc1noc(-c2ncn3c2Cc2c(C)nnn2-c2ccccc2-3)n1` [Compound 126], the activation at 0.1 µM lay within 20 to 50%.
As for `Cc1nc(-c2ncn3c2Cc2c(C)nnn2-c2ccccc2-3)no1` [Compound 127], the figure is 20 to 50%; as for `COCc1nnc2n1Cc1c(-c3nc(C)no3)ncn1-c1ccc(OC)cc1-2` [Compound 128], 20 to 50%; as for `COCc1nnc2n1Cc1c(-c3nc(C(C)C)no3)ncn1-c1ccc(OC)cc1-2` [Compound 130], 20 to 50%.
For the compound `Cc1nnn2c1Cc1c(-c3nc(C(C)C)no3)ncn1-c1ccccc1-2` [Compound 132], the activation at 0.1 µM lay in the range of 20 to 50%.
As for `Cc1nnn2c1Cc1c(-c3noc(C(C)C)n3)ncn1-c1ccccc1-2` [Compound 133], the figure is 5 to 20%.
As for `CCOC(=O)c1ncn2c1Cn1c(COc3ccccc3)nnc1-c1cc(F)ccc1-2` [Compound 137], the activation at 0.1 µM lay within 20 to 50%.
As for `Cc1nc(-c2ncn3c2Cc2c(C)nnn2-c2cc(F)ccc2-3)no1` [Compound 145], the figure is > 50%; as for `CC(C)c1nc(-c2ncn3c2Cn2c(COc4ccccc4)nnc2-c2cc(F)ccc2-3)no1` [Compound 147], 20 to 50%.
The figure for `Cc1nc(-c2ncn3c2Cn2c(COc4ccccc4)nnc2-c2cc(F)ccc2-3)no1` [Compound 148] is 20 to 50%; for `Cc1nnn2c1Cc1c(-c3noc(C(C)C)n3)ncn1-c1ccc(F)cc1-2` [Compound 149] it is > 50%.
As for `Cc1nnn2c1Cc1c(C(=O)OC(C)C)ncn1-c1ccccc1-2` [Compound 153], the figure is 20 to 50%; as for `CCc1nc(-c2ncn3c2Cc2c(C)nnn2-c2cc(F)ccc2-3)no1` [Compound 155], 20 to 50%; as for `CCc1nc(-c2ncn3c2Cn2c(COc4ccccc4)nnc2-c2cc(F)ccc2-3)no1` [Compound 158], 20 to 50%.
Turning to `Cc1nnn2c1Cc1c(-c3noc(C(C)(C)C)n3)ncn1-c1ccc(F)cc1-2` [Compound 160], the activation at 0.1 µM was > 50%.
On to `COc1ccc2c(c1)-c1nnc(COc3ccccc3)n1Cc1c(-c3noc(C)n3)ncn1-2` [Compound 162], for which the activation at 0.1 µM is 20 to 50%.
Consider `COc1ccc2c(c1)-c1nnc(COc3ccc(F)cc3)n1Cc1c(-c3noc(C)n3)ncn1-2` [Compound 163], for which the activation at 0.1 µM lay in the range of 20 to 50%.
The figure for `COCc1nnc2n1Cc1c(-c3noc(C)n3)ncn1-c1ccc(OC)cc1-2` [Compound 164] is 5 to 20%; for `COc1ccc2c(c1)-c1nnc(COCc3ccccc3)n1Cc1c(C#N)ncn1-2` [Compound 166] it is 5 to 20%.
The figure for `COc1ccc2c(c1)-n1nnc(COc3cccc(F)c3)c1Cc1c(-c3noc(C)n3)ncn1-2` [Compound 168] is 5 to 20%; for `COc1ccc2c(c1)-c1nnc(COc3ccccc3)n1Cc1c(-c3noc(C(C)C)n3)ncn1-2` [Compound 171] it is > 50%; for `COc1ccc2c(c1)-c1nnc(COc3ccc(F)cc3)n1Cc1c(-c3noc(C(C)C)n3)ncn1-2` [Compound 172] it is > 50%.
The figure for `CCOCc1nnc2n1Cc1c(-c3noc(C(C)C)n3)ncn1-c1ccc(OC)cc1-2` [Compound 173] is > 50%; for `COc1ccc2c(c1)-c1nnc(COc3cccnc3)n1Cc1c(-c3noc(C(C)C)n3)ncn1-2` [Compound 176] it is > 50%; for `COc1ccc2c(c1)-c1nnc(COc3cccc4ccccc34)n1Cc1c(-c3noc(C(C)C)n3)ncn1-2` [Compound 177] it is > 50%.
Regarding `COc1ccc2c(c1)-c1nnc(COC3CCCC3)n1Cc1c(-c3noc(C(C)C)n3)ncn1-2` [Compound 178], the activation at 0.1 µM is > 50%.
As for `COc1ccc2c(c1)-c1nnc(COc3cccc(F)c3)n1Cc1c(-c3noc(C(C)C)n3)ncn1-2` [Compound 179], the figure is > 50%.
The figure for `COc1ccc2c(c1)-n1nnc(COc3ccc(F)cc3)c1Cc1c(-c3noc(C)n3)ncn1-2` [Compound 180] is 20 to 50%; for `COc1ccc2c(c1)-n1nnc(COc3ccccc3F)c1Cc1c(-c3noc(C)n3)ncn1-2` [Compound 181] it is 20 to 50%.
Consider `COc1ccc2c(c1)-n1nnc(COc3ccccc3)c1Cc1c(-c3noc(C)n3)ncn1-2` [Compound 182], for which the activation at 0.1 µM fell in the range of 20 to 50%.

The values above are taken from patent publication US12528819B2 (priority 2016, dated 2026).
